In brackets after ≈: the same amount, converted by molar mass. Like-named read-outs stand apart in the source and are kept apart here.
Legend:
in vitro = details: human
Description: The cytotoxicities of the compounds of Example 1 and the racemic compound (Intermediate 1) were determined in two CD4 cell lines: H9 and CEM.
Compounds for test were serially diluted from 100 μg/ml to 0.3 μg/ml (final concentrations) in 96 well microtitre plates. 3.6×10^4 cells were inoculated into each well of the plates including drug-free controls. After incubation at 37° C. for 5 days, the viable cell count was determined by removing a sample of cell suspension and counting trypan blue excluding cells in a hemocytometer.

HIV-1 strain RF [1] = assay: microbe, parasite or virus in culture; details: Human immunodeficiency virus 1, MT4, in Homo sapiens, read-out: 50% Antiviral Activity, Formazan
Description: Antiviral activity of the compound of Example 1 was determined against HIV-1 in the following cell lines.
MT-4 cells, a human T-cell leukaemia cell line, infected with HIV-1 strain RF.
Antiviral activity in C8166 cells was determined by inhibition of syncytium formation (Tochikura et al Virology, 164, 542-546) and in MT-4 cells by inhibition of formazan conversion [Baba et al, Biochem Biophys Res Commun., 142, pp. 128-134 (1987); Mossman, J. Immun. Meth., 65, pp. 55-57 (1983)]. Antiviral activities were also determined by analyzing the amount of HIV p24 antigen synthesized in the presence and absence of enantiomers.

CD4 cell lines = assay: Cytotoxicity of the enantiomers (general statement); assay type: cell-based; details: in words
[2] = system: HIV p24 antigen (HIV-1 RF); assay: Inhibition of HIV p24 antigen synthesis in C8166 cells; assay type: cell-based, HIV-1; C8166 human T-lymphoblastoid cell line
HIV-1 strain RF [3] = assay: Antiviral activity, inhibition of syncytium formation in C8166 cells; assay type: cell-based, HIV-1; C8166 human T-lymphoblastoid cell line

Row | SMILES | CC50 at 120 h (in vitro; cem cells) | CC50 at 120 h (in vitro; h9 cells) | IC50 (HIV-1 strain RF [1]) | activity relative to the (+)-enantiomer (HIV) | cytotoxicity (CD4 cell lines) | IC50 ([2]; Human immunodeficiency virus 1, C8166, read-out: 50% Inhibition HIV p24 Synthesis) | IC50 (HIV-1 strain RF [3]; Human immunodeficiency virus 1, C8166, read-out: 50% Antiviral Activity, Inhibition of syncytium formation) | IC50 ([2]; Human immunodeficiency virus 1, C8166 cells, virus RF, read-out: 50% Inhibition HIV p24 Synthesis) | IC50 (HIV-1 strain RF [3]; Human immunodeficiency virus 1, C8166 cells, HIV-1 RF, read-out: 50% Antiviral Activity, Inhibition of syncytium formation)
1 | Nc1nc(=O)n([C@@H]2CS[C@H](CO)O2)cc1F (relative stereo) [Intermediate 1, (±)-Cis-2-hydroxymethyl-5-(5'-fluorocytosin-1'-yl)1,3-oxathiolane] | 173 µg/mL (≈ 700 µM) | 232 µg/mL (≈ 938 µM) | 0.065 µg/mL (≈ 0.263 µM) | – | – | – | – | – | –
2 | Nc1nc(=O)n([C@@H]2CS[C@H](CO)O2)cc1F [(-)-enantiomer, (-)-4-amino-5-fluoro-1-(2-hydroxymethyl-1,3-oxathiolan-5-yl)-(1H)-pyrimidin-2-one] | 148 µg/mL (≈ 599 µM) | 296 µg/mL (≈ 1200 µM) | 0.14 µg/mL (≈ 0.566 µM) | much more active than the (+)-enantiomer | unexpectedly low cytotoxicity | – | – | – | –
3 | Cc1cn([C@H]2C[C@H](N=[N+]=[N-])[C@@H](CO)O2)c(=O)[nH]c1=O [AZT, 3'-azido-3'-deoxythymidine, reference compound] | – | – | – | – | – | 0.017 µg/mL (≈ 0.0636 µM) | 0.0038 µg/mL (≈ 0.0142 µM) | – | –
4 | Nc1nc(=O)n([C@H]2CS[C@@H](CO)O2)cc1F [(+)-enantiomer, (+)-cis-2-hydroxymethyl-5-(5'-fluorocytosin-1'-yl) -1,3-oxathiolane] | 217 µg/mL (≈ 878 µM) | 334 µg/mL (≈ 1350 µM) | > 1 µg/mL | – | unexpectedly low cytotoxicity | – | – | 0.1 µg/mL (≈ 0.404 µM) | 0.04 µg/mL (≈ 0.162 µM)

— patent US5538975A, “1,3-oxathiolane nucleoside compounds and compositions” (BioChem Pharma, Inc., priority 1991, dated 1996)
